Experimental findings from US8241842B2, “Methods and devices for measuring diffusion by magnetic resonance imaging” (California Institute of Technology, priority 2003, dated 2012) are described below.

The nature of data set [1]: MRI of D2O/H2O exchange across a membrane in the membrane cell (Example 1A, FIG. 1). Conditions: Water/D2O chamber signal ratio vs time, best fit exponential; one chamber initially D2O, the other H2O. The data set is classed as physicochemical. From the text:
D2O gives no signal in conventional 1H MRI, and thus acts as a negative marker. The diffusional permeability can then be calculated from the signal time-course using conventional mass transport equations assuming that signal intensity is proportional to water concentration.
FIG. 1 provides the results of experiments on D2O-concentration related signal changes in two chambers, one initially containing D2O, the other with H2O.

Data set [2] can be described thus: MRI of D2O/H2O exchange across a membrane in the membrane cell (Example 1B, FIG. 2). The class given is physicochemical. Conditions: signal difference between chambers over 64 minutes; upper chamber deuterium oxide saline, lower water saline; 12 micron pore-size polycarbonate membrane. The text has this:
A 5 mm diameter membrane tissue sample is mounted between two layers of 125 micron pore-size nylon mesh. The tissue sample assembly is then mounted in the central recess of the cell base and the cell cap is tightened onto the base using three M2.5 nylon screws. O-rings mounted into the cap and base prevent fluid leakage between the upper and lower central chambers. The central well of the base is filled with water or saline water with the cell inverted. The base well is then sealed with impermeable adhesive tape. The central well of the upper chamber is filled with deuterium oxide (D2O) or D2O saline and sealed with impermeable adhesive tape as before.
D2O gives no signal in conventional ^1H MRI, and thus acts as a negative marker. The diffusional permeability can then be calculated from either the mean signal time-courses in the upper and lower chambers using conventional mass transport equations assuming that signal intensity is proportional to water concentration.
FIG. 2 provides the results of experiments on D2O-concentration related signal changes in two chambers, one initially containing D2O, the other with H2O. Cross-sectional T1-weighted magnetic resonance image through the membrane cell during permeability testing of a single layer of 12 micron pore-size polycarbonate membrane. Images at (a) time=0 minutes and (b) 64 minutes are shown. Images were acquired every 256 seconds. […]

Data set [3] is described as follows: MRI of gadolinium chelate diffusion across a membrane (Example 3, FIG. 5). The data set is classed as physicochemical. Conditions: exponential fit to signal difference between chambers; upper chamber initially 1 mM gadolinium chelate, lower chamber water. On the procedure: FIGS. 5A-5C provide the results of experiments on gadolinium chelate-concentration related signal changes in two chambers. (a) MR image of the membrane cell with the upper chamber initially containing 1 mM gadolinium chelate (Prohance® (gadoteridol), Bracco Diagnostics Inc., Princeton N.J.) and the lower chamber containing water. Signal enhancement due to the gadolinium chelate can be indicated by red false coloring. (b) the mean signal time course within the regions of interest indicated by black boxes in (a). The signal difference between the chambers has been fitted to an exponential and has a time-constant of approximately 158 minutes. The concentration time course in each chamber would require signal-concentration calibration. […] This effect would not be readily detected by non-imaging methods.
Gadolinium chelates of various molecular weights (e.g. […]) may be used as MR detectable tracers which alter the T1 relaxation time of the surrounding water and thus imparts contrast to the image. […] If the upper chamber is initially filled with a dilute aqueous solution of the chelate, and the lower chamber is filled with water, the diffusional permeability of the membrane may be estimated from the time course of either (a) the mean signal within each chamber or (b) the spatial variation of chelate above and below the membrane as determined by calibrated MR images. […]

For data set [4] the following is noted: from mean signal ratio between chambers; one saturated with oxygen, the other with argon; 0.4 μm polycarbonate film. The text has this:
(§1) This sample assembly is then inserted in the upper circular recess of the membrane cell base. The membrane cell washer is then placed over the sample assembly and the membrane cell cap screwed onto the base, tightening the washer onto the sample assembly. The upper central well in the membrane cell cap is then filled with inert gas (e.g. argon or nitrogen) saturated aqueous solution and sample placed in the magnetic resonance imaging system.
(§2) Sequential T1-weighted magnetic resonance images are acquired of a midline slice through the membrane cell, parallel to the long-axis of the cell.
The generalized exponential decay to equilibrium in two chamber system, including systematic drift function F(t) is given by: SA(t)=F(t)[SA(∞)+(SA(0)−SA(∞))e^−t/Tc] SB(t)=F(t)[SB(∞)+(SB(∞)−SB(0))e^−t/Tc] Taking the ration of the two signals eliminates the systematic drift allowing the time-constant for the transport across the membrane to be determined from the MRI signal time-course, as follows:
The dividing membrane was 0.4 μm pore-size polycarbonate film.

For data set [5] the following is noted: from mean signal ratio between chambers; one saturated with oxygen, the other with argon; fresh Bruch's membrane.
Source text: as §1, §2
The generalized exponential decay to equilibrium in two chamber system, including systematic drift function F(t) is given by: SA(t)=F(t)[SA(∞)+(SA(0)−SA(∞))e^−t/Tc] SB(t)=F(t)[SB(∞)+(SB(∞)−SB(0))e^−t/Tc] Taking the ration of the two signals eliminates the systematic drift allowing the time-constant for the transport across the membrane to be determined from the MRI signal time-course, as follows: […]

Values joined by “and” are separate entries in the source; they are usually repeats but may differ in a detail not shown here. Equal entries are not always repeated. Where two headings read alike, the source gives them in different places.

In the case of `[2H]O[2H]` [D2O, deuterium oxide], the “time constant for the exchange” value in data set [1] was “approximately 17.3 minutes”. Besides, the “time-constant of the fitted exponential decay (index of membrane permeability)” value in data set [2] came out at 40.7 min. For the compound `CC(O)CN1CCN(CC(=O)[O-])CCN(CC(=O)[O-])CCN(CC(=O)[O-])CC1.[Gd+3]` (centres unmarked) [Prohance, gadoteridol], the time-constant entry in data set [3] was “approximately 158 minutes”.

Take `O=O` [oxygen]: the time-constant in data set [4] is 59.8 min and 54.9 min; in data set [5], 67.7 min.
